According to ChEMBL document CHEMBL1201862, “PubChem BioAssay data set” (2004):
Calls of active or inactive are those of the source.

How the values were obtained:
[1] = target: T1, Corticotropin-releasing factor receptor 2/Corticotropin-releasing factor-binding protein (Homo sapiens, UniProt P24387+Q13324); assay: Dose Response confirmation of uHTS hits for small molecule antagonists of the CRF-binding protein and CRF-R2 receptor complex.; format: functional; conditions: read-out: IC50_Mean
T1 sequence (Q13324 whole entry): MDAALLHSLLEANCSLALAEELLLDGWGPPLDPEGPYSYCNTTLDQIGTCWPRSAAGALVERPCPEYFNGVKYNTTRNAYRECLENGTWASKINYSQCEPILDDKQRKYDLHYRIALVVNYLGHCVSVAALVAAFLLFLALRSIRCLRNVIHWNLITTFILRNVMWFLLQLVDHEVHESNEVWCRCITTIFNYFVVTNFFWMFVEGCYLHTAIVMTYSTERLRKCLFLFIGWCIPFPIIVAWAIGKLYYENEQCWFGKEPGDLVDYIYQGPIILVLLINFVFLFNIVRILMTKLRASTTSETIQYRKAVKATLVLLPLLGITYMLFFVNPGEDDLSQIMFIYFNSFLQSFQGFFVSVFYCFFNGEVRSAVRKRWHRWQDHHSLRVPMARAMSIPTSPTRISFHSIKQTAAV
T1 sequence (P24387 whole entry): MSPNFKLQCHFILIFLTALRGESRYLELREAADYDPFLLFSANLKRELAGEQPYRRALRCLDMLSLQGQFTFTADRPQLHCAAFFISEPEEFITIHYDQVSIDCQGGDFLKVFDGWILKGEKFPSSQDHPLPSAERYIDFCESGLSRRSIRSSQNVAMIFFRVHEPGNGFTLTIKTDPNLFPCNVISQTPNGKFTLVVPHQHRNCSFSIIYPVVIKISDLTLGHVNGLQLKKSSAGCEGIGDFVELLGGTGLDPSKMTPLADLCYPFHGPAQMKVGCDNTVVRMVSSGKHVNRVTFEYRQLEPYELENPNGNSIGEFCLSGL

HeLa = assay: HeLa cell cytotoxicity, dose response, cytotoxicity control for MITF activator project, CellTiter-Glo luminescence, cherry-pick samples (AID 540259); format: functional, cell-based; conditions: Homo sapiens
[2] = target: T1, Corticotropin-releasing factor receptor 2/Corticotropin-releasing factor-binding protein; assay: activators of CRF receptor 2 with binding protein – uHTS hits, confirmation (AID 602473); format: functional; conditions: read-out: EC50_Mean
[3] = target: Induced myeloid leukemia cell differentiation protein Mcl-1 (Homo sapiens, UniProt Q07820); format: functional
[4] = target: FAD-linked sulfhydryl oxidase ALR (Homo sapiens, UniProt P55789); assay: inhibitors of human ALR sulfhydryl oxidase, dose response, biochemical, H2O2 detection, luminescence, cherry-pick (AID 493248)
[5] = target: Histone-lysine N-methyltransferase NSD2 (Homo sapiens, UniProt O96028); format: biochemical
[6] = target: Dual specificity tyrosine-phosphorylation-regulated kinase 1A (Rattus norvegicus, UniProt Q63470); format: biochemical, Homo sapiens
[7] = cytotoxicity in HEK-293T cells, dose response, cytotoxicity control for BCR NF-kB inhibitor project, luminescence, B-cell screen hits (AID 489021); format: functional, cell-based;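 note: HEK-293T cells carrying an NF-kB luciferase reporter; cells exposed to compound for about 14 hours before viability readout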
Jurkat = assay: SAR Analysis of small molecule inhibitors of T-cell specific antigen receptor-induced NF-kB activation in a Jurkat cell line using a luminescence assay - Set 2. [Related pubchem assays (depositor defined):AID435003, AID435012, AID465]; format: functional, cell-based; conditions: Homo sapiens
HEK293 [8] = assay: cytotoxicity in HEK293T NF-kB-Luc cells, SAR follow-up, cytotoxicity control for NF-kB activator project, cell-based, resazurin fluorescence (AID 493251); format: functional
HEK293 [9] = assay: PMA/Ionomycin induced NF-kB luciferase assay in 293- NF-kB-Luc stable cells. [Related pubchem assays: 1299, 1270, 1295, 1375, 1287, 1281, 1293, 1291, 1289, 1280, 465, 1364, 1282, 1372, 1365, 1370, 1367, 1366, 1269, 1373, 1292, 1290, 1302, 1371, 1283, 1271, 1294, 1374, 1368, 1369 ]; format: functional, cell-based; conditions: Homo sapiens
[10] = target: Luciferin 4-monooxygenase (Photinus pyralis, UniProt P08659); assay: In vitro luciferase assay using purified luciferase. [Related pubchem assays: 1299, 1270, 1295, 1375, 1287, 1281, 1293, 1291, 1289, 1280, 465, 1364, 1282, 1372, 1365, 1370, 1367, 1366, 1266, 1373, 1292, 1290, 1302, 1371, 1283, 1271, 1294, 1374, 1368, 1369 ]
HEK293 [11] = assay: inhibitors of LMP1-driven NF-kB reporter, dose response, cell-based, HEK293, luciferase, cherry-pick (AID 588343); format: functional; conditions: Homo sapiens
HEK293 [12] = assay: SAR Analysis of small molecule inhibitors of T-cell specific antigen receptor-induced NF-kB activation in a HEK-293T cell line using a luminescence assay - Set 2. [Related pubchem assays (depositor defined):AID435003, AID435012, AID489026]; format: functional, cell-based; conditions: Homo sapiens
HEK293 [13] = assay: Cytotoxicity assay in HEK293 cells. [Related pubchem assays (depositor defined):AID1266, AID1269, AID1270, AID1271, AID1280, AID1281, AID1282, AID1283, AID1287, AID1289, AID1290, AID1291, AID1292, AID1293, AID1294, AID1295, AID1299, AID1302, AID1364, AID1365, AID1366, AID1367, AID1369, AID1370, AID1371, AID1372, AID1373, AID1374, AID1375, AID1384 …; format: functional, cell-based; conditions: Homo sapiens
[14] = C. albicans growth with fluconazole, confirmation, fluorescence, retest (AID 2467); format: functional, cell-based
[15] = target: ATP-dependent molecular chaperone HSP82 (Candida albicans (strain WO-1) (Yeast), UniProt C4YTQ8); assay: loss of DOC-induced GRE-beta-galactosidase reporter signal, dose response, Hsp90 inhibitor project, S. cerevisiae, luminescence (AID 2400); format: functional, cell-based;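 note: beta-galactosidase luminescence from glucocorticoid response element reporter as proxy for Hsp90 function; inhibitor potency where signal loss means Hsp90 inhibition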
[16] = NIH-3T3 fibroblast cytotoxicity, dose response, cytotoxicity control, cell-based, fluorescence, Alamar Blue, secondary assay (AID 2327); format: functional;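 note: NIH-3T3 mouse fibroblasts cultured with fluconazole at 8 µg/mL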
[17] = target: Serine/threonine-protein phosphatase (Candida dubliniensis (strain CD36 / CBS 7987 / NCPF 3949 / NRRLY-17841) (Yeast), UniProt B9W6M3); assay: calcineurin pathway inhibitors in yeast reporter, dose response, S. cerevisiae, CDRE-lacZ, luminescence, secondary (AID 2388); format: functional, cell-based;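 note: yeast reporter cells carrying a calcineurin-responsive lacZ construct stimulated with calcium chloride; luminescent beta-galactosidase reporter signal in whole cells rather than isolated phosphatase activity; potency for inhibition where a drop in reporter signal means calcineurin blockade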
[18] = inhibitors of SNCA 5'UTR-driven translation, confirmation, luminescence, H4 neuroglioblastoma cells, dose confirmation (AID 2454); format: functional, cell-based;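 note: H4 neuroglioblastoma cells carrying an alpha-synuclein 5'UTR luciferase reporter; potency for inhibition of the luciferase signal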
cells = format: functional, cell-based
INS1 = assay: beta cell apoptosis inhibitors, cytokine rescue, dose response, luminescence, retest (AID 449756); format: functional, cell-based; conditions: Rattus norvegicus;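 note: cell death triggered by IL-1 beta plus TNF-alpha plus IFN-gamma mixture; protective hits raise ATP signal compared with cytokine alone wells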
[19] = luciferase reporter signal reduction – luminescence, H4-C neuroglioblastoma cells, dose response (AID 2458); format: functional, cell-based;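 note: H4 neuroglioblastoma cells stably carrying a luciferase reporter gene fusion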
[20] = inhibitors of SNCA 5'UTR-driven reporter translation, confirmation, H4 neuroglioma cells, luminescence (AID 1988); format: functional, cell-based
[21] = inhibitors of firefly luciferase expression or activity, dose response, H4 neuroglioma cells, luminescence (AID 1990); format: functional, cell-based
Exodeoxyribonuclease V = Exodeoxyribonuclease V (Escherichia coli (strain K12), UniProt P04993+P07648+P08394); assay: E. coli RecBCD inhibitors, dose response, counter-screen for AddAB inhibitor project, absorbance, V66 E. coli, mutant T4 phage (AID 492957); format: functional, cell-based, Escherichia coli str. K-12 substr. MG1655
[22] = target: T2, Intestinal-type alkaline phosphatase (Homo sapiens, UniProt P09923); assay: human intestinal alkaline phosphatase activators, dose response, biochemical, luminescence, uHTS hits (AID 463120); format: functional
[23] = target: T2, Intestinal-type alkaline phosphatase; assay: human IAP activators, dose response, biochemical, luminescent, uHTS hits, set 2 (AID 488817); format: functional;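 note: potency of activators that raise enzyme activity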
[24] = target: Intestinal-type alkaline phosphatase (Mus musculus, UniProt P24822); assay: PubChem AID 488874; format: functional
[25] = Counterscreen for AddAB inhibitors: absorbance-based bacterial cell-based high throughput dose response assay for inhibitors of bacterial viability. [Related pubchem assays (depositor defined):AID435030, AID449728, AID449731, AID488942, AID488955, AID488956]; format: functional
[26] = target: T3, Alkaline phosphatase, tissue-nonspecific isozyme (Homo sapiens, UniProt P05186); assay: TNAP enzyme activators, dose response, selectivity assay for human IAP activator project, biochemical, TNAP isozyme, human IAP uHTS hits (AID 488886); format: functional;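 note: potency of compounds raising TNAP activity as a selectivity check on IAP activators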
T3 sequence (P05186 whole entry): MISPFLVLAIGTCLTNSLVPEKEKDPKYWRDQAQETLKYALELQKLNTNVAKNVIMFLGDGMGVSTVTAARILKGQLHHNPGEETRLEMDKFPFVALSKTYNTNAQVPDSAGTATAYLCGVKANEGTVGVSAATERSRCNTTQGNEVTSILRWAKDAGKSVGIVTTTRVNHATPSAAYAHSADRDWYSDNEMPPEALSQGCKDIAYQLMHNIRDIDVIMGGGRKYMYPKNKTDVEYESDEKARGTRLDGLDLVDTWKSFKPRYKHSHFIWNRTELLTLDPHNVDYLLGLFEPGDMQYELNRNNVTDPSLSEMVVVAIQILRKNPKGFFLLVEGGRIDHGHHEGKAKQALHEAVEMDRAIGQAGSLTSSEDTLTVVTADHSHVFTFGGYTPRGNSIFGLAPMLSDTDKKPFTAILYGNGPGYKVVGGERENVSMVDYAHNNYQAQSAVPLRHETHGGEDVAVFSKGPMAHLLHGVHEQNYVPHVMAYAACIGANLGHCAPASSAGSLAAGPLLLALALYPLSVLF

T2 sequence (P09923 whole entry): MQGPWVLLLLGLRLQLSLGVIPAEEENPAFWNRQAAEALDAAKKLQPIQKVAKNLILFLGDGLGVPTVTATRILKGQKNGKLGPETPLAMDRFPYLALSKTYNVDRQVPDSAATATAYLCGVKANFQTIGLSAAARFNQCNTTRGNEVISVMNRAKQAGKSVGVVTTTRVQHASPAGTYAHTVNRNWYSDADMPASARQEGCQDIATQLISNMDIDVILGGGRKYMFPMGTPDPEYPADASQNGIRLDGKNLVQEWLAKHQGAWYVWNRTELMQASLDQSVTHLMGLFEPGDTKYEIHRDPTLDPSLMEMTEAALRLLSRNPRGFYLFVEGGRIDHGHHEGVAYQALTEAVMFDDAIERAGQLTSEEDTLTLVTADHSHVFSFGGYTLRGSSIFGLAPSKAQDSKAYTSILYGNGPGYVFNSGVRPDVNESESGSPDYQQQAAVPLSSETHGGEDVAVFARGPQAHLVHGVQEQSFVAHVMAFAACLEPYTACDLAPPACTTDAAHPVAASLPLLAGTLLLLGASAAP
ATP-dependent molecular chaperone HSP82, sequence (C4YTQ8 whole entry): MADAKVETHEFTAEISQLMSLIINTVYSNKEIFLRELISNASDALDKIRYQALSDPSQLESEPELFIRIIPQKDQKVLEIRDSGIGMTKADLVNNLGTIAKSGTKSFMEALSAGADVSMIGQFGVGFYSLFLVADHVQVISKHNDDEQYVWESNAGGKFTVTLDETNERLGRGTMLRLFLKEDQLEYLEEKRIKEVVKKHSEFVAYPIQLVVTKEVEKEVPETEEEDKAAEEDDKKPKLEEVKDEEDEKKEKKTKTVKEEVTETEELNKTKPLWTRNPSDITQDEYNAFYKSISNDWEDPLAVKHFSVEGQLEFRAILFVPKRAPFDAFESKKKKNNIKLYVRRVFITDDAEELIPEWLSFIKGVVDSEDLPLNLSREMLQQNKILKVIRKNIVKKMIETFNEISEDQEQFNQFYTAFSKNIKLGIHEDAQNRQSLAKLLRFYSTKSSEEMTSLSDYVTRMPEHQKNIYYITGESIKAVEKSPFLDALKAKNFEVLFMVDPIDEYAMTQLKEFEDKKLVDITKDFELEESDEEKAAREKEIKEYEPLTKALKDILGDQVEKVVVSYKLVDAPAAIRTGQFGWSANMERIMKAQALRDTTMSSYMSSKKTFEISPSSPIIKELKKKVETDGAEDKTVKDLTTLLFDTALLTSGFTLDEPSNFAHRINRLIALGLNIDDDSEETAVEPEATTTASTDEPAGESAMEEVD
Serine/threonine-protein phosphatase, sequence (B9W6M3 whole entry): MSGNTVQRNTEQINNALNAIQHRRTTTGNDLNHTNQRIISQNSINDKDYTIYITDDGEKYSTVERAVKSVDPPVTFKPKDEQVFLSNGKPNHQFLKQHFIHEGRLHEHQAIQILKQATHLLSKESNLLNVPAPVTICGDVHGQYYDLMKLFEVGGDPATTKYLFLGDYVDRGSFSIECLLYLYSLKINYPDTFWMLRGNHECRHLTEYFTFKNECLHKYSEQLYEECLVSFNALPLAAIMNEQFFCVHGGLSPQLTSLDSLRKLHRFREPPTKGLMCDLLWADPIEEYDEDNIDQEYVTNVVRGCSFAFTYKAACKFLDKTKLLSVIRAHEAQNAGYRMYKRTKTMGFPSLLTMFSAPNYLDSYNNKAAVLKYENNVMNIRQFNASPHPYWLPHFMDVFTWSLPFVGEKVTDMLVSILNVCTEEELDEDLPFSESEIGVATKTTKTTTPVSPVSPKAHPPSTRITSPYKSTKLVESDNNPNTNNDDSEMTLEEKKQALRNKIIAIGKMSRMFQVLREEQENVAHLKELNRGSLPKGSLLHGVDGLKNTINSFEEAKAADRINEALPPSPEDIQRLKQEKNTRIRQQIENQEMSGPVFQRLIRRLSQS
Induced myeloid leukemia cell differentiation protein Mcl-1, sequence (Q07820 whole entry): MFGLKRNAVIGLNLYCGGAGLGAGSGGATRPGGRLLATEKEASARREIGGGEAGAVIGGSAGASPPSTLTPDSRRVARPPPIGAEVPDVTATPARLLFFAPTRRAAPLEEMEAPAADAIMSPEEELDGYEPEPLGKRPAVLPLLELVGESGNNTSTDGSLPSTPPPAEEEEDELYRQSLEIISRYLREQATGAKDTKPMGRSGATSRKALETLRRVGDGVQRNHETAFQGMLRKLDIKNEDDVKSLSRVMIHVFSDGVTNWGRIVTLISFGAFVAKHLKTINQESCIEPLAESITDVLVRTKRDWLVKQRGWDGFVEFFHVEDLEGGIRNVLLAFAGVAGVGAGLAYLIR
Luciferin 4-monooxygenase, sequence (P08659 whole entry): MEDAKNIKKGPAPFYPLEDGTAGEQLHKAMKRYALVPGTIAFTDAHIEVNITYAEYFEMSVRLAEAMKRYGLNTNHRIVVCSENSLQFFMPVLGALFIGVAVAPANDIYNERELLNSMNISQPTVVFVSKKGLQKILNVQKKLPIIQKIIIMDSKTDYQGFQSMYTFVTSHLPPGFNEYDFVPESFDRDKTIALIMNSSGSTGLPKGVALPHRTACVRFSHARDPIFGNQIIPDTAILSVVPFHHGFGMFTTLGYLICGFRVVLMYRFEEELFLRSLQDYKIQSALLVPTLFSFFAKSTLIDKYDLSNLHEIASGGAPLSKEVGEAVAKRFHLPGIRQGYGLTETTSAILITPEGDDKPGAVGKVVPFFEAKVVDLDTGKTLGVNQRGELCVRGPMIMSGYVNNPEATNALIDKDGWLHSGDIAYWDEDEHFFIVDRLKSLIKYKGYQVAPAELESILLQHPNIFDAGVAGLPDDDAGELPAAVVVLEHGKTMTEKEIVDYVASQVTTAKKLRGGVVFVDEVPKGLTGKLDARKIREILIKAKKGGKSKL
Intestinal-type alkaline phosphatase (Mus musculus, UniProt P24822), sequence (P24822 whole entry): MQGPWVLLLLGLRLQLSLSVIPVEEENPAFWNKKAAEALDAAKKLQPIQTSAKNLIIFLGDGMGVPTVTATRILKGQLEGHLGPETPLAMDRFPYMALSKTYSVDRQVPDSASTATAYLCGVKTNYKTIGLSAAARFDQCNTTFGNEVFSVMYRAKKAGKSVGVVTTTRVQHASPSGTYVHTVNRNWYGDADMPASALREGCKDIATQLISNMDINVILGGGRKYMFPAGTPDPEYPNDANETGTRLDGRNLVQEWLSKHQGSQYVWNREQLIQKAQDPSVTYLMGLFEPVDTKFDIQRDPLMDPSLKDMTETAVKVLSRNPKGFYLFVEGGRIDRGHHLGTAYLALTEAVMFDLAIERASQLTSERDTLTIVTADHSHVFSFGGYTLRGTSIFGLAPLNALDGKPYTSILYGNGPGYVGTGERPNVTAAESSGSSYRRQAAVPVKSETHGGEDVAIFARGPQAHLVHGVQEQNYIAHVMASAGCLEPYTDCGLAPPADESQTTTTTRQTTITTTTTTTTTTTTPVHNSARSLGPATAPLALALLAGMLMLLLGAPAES
FAD-linked sulfhydryl oxidase ALR, sequence (P55789 whole entry): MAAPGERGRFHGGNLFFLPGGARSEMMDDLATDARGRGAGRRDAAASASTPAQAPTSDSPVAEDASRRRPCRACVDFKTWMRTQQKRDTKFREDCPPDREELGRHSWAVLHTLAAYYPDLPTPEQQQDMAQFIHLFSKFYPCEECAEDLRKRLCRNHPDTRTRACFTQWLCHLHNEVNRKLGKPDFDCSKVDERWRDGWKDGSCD
Histone-lysine N-methyltransferase NSD2, sequence (O96028 whole entry): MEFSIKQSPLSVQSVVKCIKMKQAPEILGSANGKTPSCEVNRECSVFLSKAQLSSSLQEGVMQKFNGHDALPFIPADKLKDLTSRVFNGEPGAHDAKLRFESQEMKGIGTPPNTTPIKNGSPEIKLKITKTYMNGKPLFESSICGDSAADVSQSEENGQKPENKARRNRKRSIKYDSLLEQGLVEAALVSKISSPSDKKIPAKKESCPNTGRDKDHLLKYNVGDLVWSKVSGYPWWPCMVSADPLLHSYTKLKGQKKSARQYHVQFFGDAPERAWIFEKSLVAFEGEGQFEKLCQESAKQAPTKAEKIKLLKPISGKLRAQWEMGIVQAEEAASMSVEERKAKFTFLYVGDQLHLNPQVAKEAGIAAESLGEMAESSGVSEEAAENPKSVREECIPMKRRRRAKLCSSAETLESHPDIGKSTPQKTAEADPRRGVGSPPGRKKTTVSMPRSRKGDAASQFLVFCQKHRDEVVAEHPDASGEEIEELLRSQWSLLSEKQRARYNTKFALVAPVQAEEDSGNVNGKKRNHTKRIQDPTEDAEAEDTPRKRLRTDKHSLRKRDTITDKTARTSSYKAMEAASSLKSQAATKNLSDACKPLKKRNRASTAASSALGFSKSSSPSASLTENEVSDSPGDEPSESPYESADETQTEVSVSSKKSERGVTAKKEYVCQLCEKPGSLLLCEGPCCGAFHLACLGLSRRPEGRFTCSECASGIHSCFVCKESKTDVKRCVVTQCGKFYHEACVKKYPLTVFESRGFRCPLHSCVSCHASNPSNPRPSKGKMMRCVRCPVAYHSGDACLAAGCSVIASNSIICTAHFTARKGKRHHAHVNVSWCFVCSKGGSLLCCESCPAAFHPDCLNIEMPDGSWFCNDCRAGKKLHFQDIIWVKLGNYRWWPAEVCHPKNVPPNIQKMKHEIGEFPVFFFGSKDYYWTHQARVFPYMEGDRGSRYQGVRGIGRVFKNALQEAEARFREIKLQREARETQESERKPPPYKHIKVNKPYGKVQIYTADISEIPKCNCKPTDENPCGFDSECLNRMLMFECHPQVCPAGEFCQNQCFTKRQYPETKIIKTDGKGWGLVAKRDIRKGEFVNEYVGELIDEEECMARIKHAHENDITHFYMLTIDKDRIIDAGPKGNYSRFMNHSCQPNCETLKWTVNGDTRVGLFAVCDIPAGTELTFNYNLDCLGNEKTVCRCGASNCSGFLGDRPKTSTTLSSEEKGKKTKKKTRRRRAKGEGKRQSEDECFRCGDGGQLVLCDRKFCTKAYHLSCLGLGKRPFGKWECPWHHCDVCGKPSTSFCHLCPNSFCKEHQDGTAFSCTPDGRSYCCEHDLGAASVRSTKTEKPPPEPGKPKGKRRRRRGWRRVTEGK

SMILES: COc1ccc2c(c1OC)C(=O)N1c3ccccc3COC21 (stereo unspecified)
- IC50 [1]: > 47.1 µM (inactive)
- AC50 (HeLa): > 350 µM (inactive)
- EC50 [2]: > 53 µM (inactive)

SMILES: COc1ccc(NC(=O)c2ccc3[nH]c(C)c(C)c3c2)cc1
- AC50 (HeLa): 47.9 µM (active)

SMILES: O=C1NC(=O)/C(=C\c2ccc(O)cc2O)S1
- IC50 [3]: 2.2 µM (active)
- AC50 [4]: 1.78 µM (active)
- AC50 [5]: 2.07 µM (active)
- AC50 [6]: 0.56 µM (active)

SMILES: CCOc1ccc(-c2nc(CSCC(=O)NCc3ccco3)c(C)o2)cc1
- IC50 [7]: > 80 µM (inactive)
- IC50 (Jurkat): > 79 µM (inactive)
- IC50 (HEK293 [8]; Homo sapiens, HEK293): 54.4 µM (inactive)
- IC50 (HEK293 [8]; hek293): 53.1 µM (inactive)
- EC50 (HEK293 [9]): 15.4 µM (not active)
- EC50 [10]: > 8 µM (not active)
- AC50 (HEK293 [11]): 32 µM (active)
- IC50 (HEK293 [12]): 25.2 µM (inactive)
- EC50 (HEK293 [13]): 20.3 µM (inactive)

SMILES: CCN(CC)C(=O)CCc1nc(-c2ccc(C(C)(C)C)cc2)no1
- IC50 (Jurkat): 47.8 µM (inactive)
- IC50 (HEK293 [8]; Homo sapiens, HEK293): 54.7 µM (inactive)
- IC50 (HEK293 [8]; hek293): 51.5 µM (inactive)
- IC50 (HEK293 [12]): 19.7 µM (active)

SMILES: CCCCCCc1c(C)nc(-n2[nH]c(C)c(CCO)c2=O)[nH]c1=O
- EC50 [14]: 0.635 µM (active)
- EC50 [15]: > 160 µM (inactive)
- EC50 [16]: > 160 µM (inactive)
- EC50 [17]: > 180 µM (inactive)

SMILES: O=c1c2ccccc2nc(N/N=C/c2c(O)ccc3ccccc23)n1O
- EC50 [18]: > 12 µM (inconclusive)
- EC50 (cells): 1.26 µM (active)
- AC50 (INS1): 1.23 µM (active)
- EC50 [19]: 0.601 µM (active)
- EC50 [14]: 0.212 µM (active)
- EC50 [20]: < 0.1 µM (active)
- EC50 [21]: < 0.1 µM (active)
- EC50 [15]: 18.1 µM (active)
- IC50 (Exodeoxyribonuclease V): > 119 µM (inactive)
- EC50 [22]: 13.6 µM (active)
- EC50 [23]: 31 µM (active)
- EC50 [16]: > 150 µM (inactive)
- EC50 [17]: > 180 µM (inactive)
- IC50 [24]: 75.3 µM (active)
- IC50 [25]: > 119 µM (inactive)
- EC50 [26]: > 100 µM (inactive)
